From patent publication US10669284B2, “Fused thiazolopyrimidine derivatives as MNKS inhibitors” (LIFEARC, priority 2015, dated 2020)

Tests used:
[1] = target: T1, Full-length human MNK1 (Homo sapiens, UniProt Q9BUB5, T385D); test: MNK1 biochemical IC50 assay (Caliper Mobility Shift Assay); conditions: read-out: P(IC50) MNK1 (converted)
T1 construct: GST (N); purchased Carna Biosciences 02-145; host or cells: baculovirus expression system

[2] = target: T2, Full-length human MNK2 (Homo sapiens, UniProt Q9HBH9, T379D); test: MNK2 biochemical IC50 assay (Caliper Mobility Shift Assay); conditions: read-out: P(IC50) MNK2 (converted)
T2 construct: GST (N); purchased Carna Biosciences 02-146; host or cells: baculovirus expression system

[3] = system: phosphorylation of eIF4E at ser209 in MV4.11 cell line; test: MNK cellular activity phospho-eIF4E detection assay (Alphascreen Surefire); assay type: cell-based; conditions: Homo sapiens; MV4.11 cell line, phospho-eIF4E (ser209) Alphascreen Surefire; read-out: P(IC50) elF4E (converted)
In short: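 AlphaScreen SureFire sandwich-immunoassay readout of phospho-eIF4E Ser209 in lysed MV4.11 cells; acceptor then donor beads, each 1.5 hr at room temperature. Signal normalised to untreated DMSO-only controls; duplicate curves, values averaged over at least 2 independent experiments.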

T2 sequence (Q9HBH9 whole entry T379D): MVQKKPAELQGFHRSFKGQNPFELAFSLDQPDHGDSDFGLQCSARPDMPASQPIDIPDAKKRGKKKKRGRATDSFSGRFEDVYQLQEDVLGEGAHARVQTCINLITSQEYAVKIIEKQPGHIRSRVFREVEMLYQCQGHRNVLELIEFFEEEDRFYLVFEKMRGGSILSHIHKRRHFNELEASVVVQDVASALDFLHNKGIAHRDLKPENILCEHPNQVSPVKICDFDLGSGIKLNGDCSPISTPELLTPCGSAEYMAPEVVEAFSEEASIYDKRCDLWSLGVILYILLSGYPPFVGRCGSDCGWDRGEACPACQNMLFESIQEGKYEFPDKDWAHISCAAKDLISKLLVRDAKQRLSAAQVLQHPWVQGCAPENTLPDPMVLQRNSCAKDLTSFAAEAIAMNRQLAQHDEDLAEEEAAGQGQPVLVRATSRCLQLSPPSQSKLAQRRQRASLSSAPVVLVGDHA
T1 sequence (Q9BUB5 1-424 isoform Q9BUB5-2 T344D): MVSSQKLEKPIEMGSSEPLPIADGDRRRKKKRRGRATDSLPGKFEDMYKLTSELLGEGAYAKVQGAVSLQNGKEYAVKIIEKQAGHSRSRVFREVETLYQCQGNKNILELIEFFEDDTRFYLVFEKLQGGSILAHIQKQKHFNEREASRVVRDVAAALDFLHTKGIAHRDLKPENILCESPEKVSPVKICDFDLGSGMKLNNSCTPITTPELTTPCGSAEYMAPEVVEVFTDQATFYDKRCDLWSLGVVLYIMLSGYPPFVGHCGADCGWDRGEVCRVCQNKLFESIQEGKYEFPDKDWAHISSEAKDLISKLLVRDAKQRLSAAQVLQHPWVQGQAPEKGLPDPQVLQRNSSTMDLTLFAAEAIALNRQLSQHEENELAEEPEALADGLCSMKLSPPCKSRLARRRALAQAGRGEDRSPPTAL

| IC50 [1] [nM] | IC50 [2] [nM] | IC50 [3] [nM] | Structure (SMILES) |
| --- | --- | --- | --- |
| 10 | 10 | 10 | O=C(NC1CCOCC1)c1nc2c(N3CC(CCO)c4ccccc43)ncnc2s1 (stereo not drawn) [Example 110, 7-[3-(2-hydroxyethyl)indolin-1-yl]-N-tetrahydropyran-4-yl-thiazolo[5,4-d]pyrimidine-2-carboxamide] |
| 5.01 | 6.31 | 63.1 | NCCC1CN(c2ncnc3sc(C(=O)NC4CCOCC4)nc23)c2ccccc21 (stereo not drawn) [Example 111, 7-[3-(2-aminoethyl)indolin-1-yl]-N-tetrahydropyran-4-yl-thiazolo[5,4-d]pyrimidine-2-carboxamide] |
| 200 | 126 | 316 | O=C(NC1CCOCC1)c1nc2c(N3CCc4cc(C(F)(F)F)ccc43)ncnc2s1 [Example 112, N-(tetrahydro-2H-pyran-4-yl)-7-(5-(trifluoromethyl)indolin-1-yl)thiazolo[5,4-d]pyrimidine-2-carboxamide] |
| 39.8 | 39.8 | 39.8 | CC1(CCO)CN(c2ncnc3sc(C(=O)NC4CCOCC4)nc23)c2ccccc21 (stereo not drawn) [Example 113, 7-[3-(2-hydroxyethyl)-3-methyl-indolin-1-yl]-N-tetrahydropyran-4-yl-thiazolo[5,4-d]pyrimidine-2-carboxamide] |
| 2.51 | 2.51 | 1.58 | O=C(NC1CCOCC1)c1nc2c(N3CCc4cc(O)ccc43)ncnc2s1 [Example 114, 7-(5-hydroxyindolin-1-yl)-N-tetrahydropyran-4-yl-thiazolo[5,4-d]pyrimidine-2-carboxamide] |
| 31.6 | 15.8 | 126 | CNCCC1CN(c2ncnc3sc(C(=O)NC4CCOCC4)nc23)c2ccccc21 (stereo not drawn) [Example 115, 7-[3-[2-(Methylamino)ethyl]indolin-1-yl]-N-tetrahydropyran-4-yl-thiazolo[5,4-d]pyrimidine-2-carboxamide] |
| 50.1 | 31.6 | 50.1 | O=C(NC1CCOCC1)c1nc2c(-n3ccc4ccccc43)ncnc2s1 [Example 117, 7-Indol-1-yl-N-tetrahydropyran-4-yl-thiazolo[5,4-d]pyrimidine-2-carboxamide] |
| 126 | 158 | 251 | CNCCC1(C)CN(c2ncnc3sc(C(=O)NC4CCOCC4)nc23)c2ccccc21 (stereo not drawn) [Example 118, 7-[3-Methyl-3-[2-(methylamino)ethyl]indolin-1-yl]-N-tetrahydropyran-4-yl-thiazolo[5,4-d]pyrimidine-2-carboxamide] |
| 12.6 | 15.8 | 20 | NCC1CN(c2ncnc3sc(C(=O)NC4CCOCC4)nc23)c2ccccc21 (stereo not drawn) [Example 119, 7-[3-(Aminomethyl)indolin-1-yl]-N-tetrahydropyran-4-yl-thiazolo[5,4-d]pyrimidine-2-carboxamide] |
| 50.1 | 31.6 | 126 | CNCC1CN(c2ncnc3sc(C(=O)NC4CCOCC4)nc23)c2ccccc21 (stereo not drawn) [Example 120, 7-[3-(Methylaminomethyl)indolin-1-yl]-N-tetrahydropyran-4-yl-thiazolo[5,4-d]pyrimidine-2-carboxamide] |
| 39.8 | 79.4 | 79.4 | CN(C)Cc1cn(-c2ncnc3sc(C(=O)NC4CCOCC4)nc23)c2ccccc12 [Example 121, 7-[3-[(dimethylamino)methyl]indol-1-yl]-N-tetrahydropyran-4-yl-thiazolo[5,4-d]pyrimidine-2-carboxamide] |
| 39.8 | 31.6 | 50.1 | CC1Cc2ccccc2N1c1ncnc2sc(C(=O)NC3CCOCC3)nc12 (stereo not drawn) [Example 122, 7-(2-Methylindolin-1-yl)-N-tetrahydropyran-4-yl-thiazolo[5,4-d]pyrimidine-2-carboxamide] |
| 25.1 | 15.8 | 20 | CC1Cc2ccccc2N1c1ncnc2sc(C(=O)NC3CCN(C)CC3)nc12 (stereo not drawn) [Example 123, 7-(2-Methylindolin-1-yl)-N-(1-methyl-4-piperidyl)thiazolo[5,4-d]pyrimidine-2-carboxamide] |
| 25.1 | 20 | 31.6 | CC1Cc2ccccc2N1c1ncnc2sc(C(=O)NCCCN(C)C)nc12 (stereo not drawn) [Example 124] |
| 3.16 | 3.98 | 3.98 | CC1CN(c2ncnc3sc(C(=O)NC4CCOCC4)nc23)c2ccccc21 (stereo not drawn) [Example 125, 7-(3-Methylindolin-1-yl)-N-tetrahydropyran-4-yl-thiazolo[5,4-d]pyrimidine-2-carboxamide] |
| 3.98 | 6.31 | 3.98 | CC1CN(c2ncnc3sc(C(=O)NC4CCN(C)CC4)nc23)c2ccccc21 (stereo not drawn) [Example 126, 7-(3-Methylindolin-1-yl)-N-(1-methyl-4-piperidyl)thiazolo[5,4-d]pyrimidine-2-carboxamide] |
| 12.6 | 15.8 | 15.8 | C[C@@H]1Cc2ccccc2N1c1ncnc2sc(C(=O)NCC3CCNCC3)nc12 [Example 127, (R)-7-(2-Methylindolin-1-yl)-N-(piperidin-4-ylmethyl)thiazolo[5,4-d]pyrimidine-2-carboxamide] |
| 20 | 12.6 | 79.4 | CNCCCNC(=O)c1nc2c(N3c4ccccc4C[C@H]3C)ncnc2s1 [Example 128, N-[3-(methylamino)propyl]-7-[(2R)-2-methylindolin-1-yl]thiazolo[5,4-d]pyrimidine-2-carboxamide] |

| IC50 [1] [nM] | IC50 [2] [nM] | IC50 [3] [nM] | Structure (SMILES) |
| --- | --- | --- | --- |
| 15.8 | 15.8 | 79.4 | C[C@@H]1Cc2ccccc2N1c1ncnc2sc(C(=O)NC3CCNCC3)nc12 [Example 129, 7-[(2R)-2-methylindolin-1-yl]-N-(4-piperidyl) thiazolo[5,4-d]pyrimidine-2-carboxamide] |
| 50.1 | 39.8 | 50.1 | C[C@@H]1Cc2ccccc2N1c1ncnc2sc(C(=O)NC3CCOCC3)nc12 [Example 130, 7-[(2R)-2-methylindolin-1-yl]-N-tetrahydropyran-4-yl-thiazolo[5,4-d]pyrimidine-2-carboxamide] |
| 100 | 31.6 | 39.8 | CNCCCNC(=O)c1nc2c(N3c4ccccc4C[C@@H]3C)ncnc2s1 [Example 131, N-[3-(methylamino)propyl]-7-[(2S)-2-methylindolin-1-yl]thiazolo[5,4-d]pyrimidine-2-carboxamide] |
| 20 | 15.8 | 25.1 | C[C@H]1Cc2ccccc2N1c1ncnc2sc(C(=O)NC3CCNCC3)nc12 [Example 132, 7-[(2S)-2-methylindolin-1-yl]-N-(4-piperidyl) thiazolo[5,4-d]pyrimidine-2-carboxamide] |
| 79.4 | 39.8 | 50.1 | C[C@H]1Cc2ccccc2N1c1ncnc2sc(C(=O)NC3CCOCC3)nc12 [Example 133, 7-[(2S)-2-methylindolin-1-yl]-N-tetrahydropyran-4-yl-thiazolo[5,4-d]pyrimidine-2-carboxamide] |
| 10 | 7.94 | 31.6 | O=C(NCC1CCNCC1)c1nc2c(N3CC(CO)c4ccccc43)ncnc2s1 (stereo not drawn) [Example 135, 7-[3-(Hydroxymethyl)indolin-1-yl]-N-(4-piperidylmethyl)thiazolo[5,4-d]pyrimidine-2-carboxamide] |
| 7.94 | 5.01 | 6.31 | O=C(NCC1CCNCC1)c1nc2c(N3CC(CCO)c4ccccc43)ncnc2s1 (stereo not drawn) [Example 136] |
| 200 | 126 | 158 | O=C(NCC1CCNCC1)c1nc2c(N3c4ccccc4C[C@H]3CO)ncnc2s1 [Example 137] |
| 398 | 316 | 200 | O=C(NCC1CCNCC1)c1nc2c(N3c4ccccc4C[C@@H]3CO)ncnc2s1 [Example 138] |
| 2.51 | 3.16 | 31.6 | O=C(NCC1CCNCC1)c1nc2c(N3CC(CCO)c4cc(F)ccc43)ncnc2s1 (stereo not drawn) [Example 139] |
| 6.31 | 6.31 | 39.8 | CC1(CO)CN(c2ncnc3sc(C(=O)NCC4CCNCC4)nc23)c2ccccc21 (stereo not drawn) [Example 140] |
| 3.16 | 5.01 | 20 | CC1(CO)CN(c2ncnc3sc(C(=O)NCC4CCNCC4)nc23)c2ccc(F)cc21 (stereo not drawn) [Example 141] |
| 15.8 | 15.8 | 10 | CC(C)(O)CC1CN(c2ncnc3sc(C(=O)NCC4CCNCC4)nc23)c2ccccc21 (stereo not drawn) [Example 142] |
| 7.94 | 6.31 | 5.01 | CC(C)(O)CC1CN(c2ncnc3sc(C(=O)NCC4CCNCC4)nc23)c2ccc(F)cc21 (stereo not drawn) [Example 143] |
| 12.6 | 15.8 | 20 | CC1(CCO)CN(c2ncnc3sc(C(=O)NCC4CCNCC4)nc23)c2ccccc21 (stereo not drawn) [Example 144] |
| 126 | 100 | 501 | O=C(NCC1CCNCC1)c1nc2c(N3CCc4cc(C(F)(F)F)ccc43)ncnc2s1 [Example 145] |
| 6.31 | 7.94 | 5.01 | CC1CN(c2ncnc3sc(C(=O)NCC4CCNCC4)nc23)c2ccccc21 (stereo not drawn) [Example 146] |
| 7.94 | 10 | 15.8 | CNCCC1CN(c2ncnc3sc(C(=O)NC4CCOCC4)nc23)c2ccc(F)cc21 (stereo not drawn) [Example 147, 7-[5-fluoro-3-[2-(methyl-amino)ethyl]indolin-1-yl]-N-tetrahydropyran-4-yl-thiazolo[5,4-d]pyrimidine-2-carboxamide] |
